This passage reports IC50 results from US12643858B2 (Inipharm, Inc., priority 2020, dated 2026).

The target in assay [1] is T1, HSD17B13 enzyme (Homo sapiens, UniProt Q7Z5P4).
T1 construct: His; made in house; host or cells: E. coli
T1 sequence (Q7Z5P4 20-300): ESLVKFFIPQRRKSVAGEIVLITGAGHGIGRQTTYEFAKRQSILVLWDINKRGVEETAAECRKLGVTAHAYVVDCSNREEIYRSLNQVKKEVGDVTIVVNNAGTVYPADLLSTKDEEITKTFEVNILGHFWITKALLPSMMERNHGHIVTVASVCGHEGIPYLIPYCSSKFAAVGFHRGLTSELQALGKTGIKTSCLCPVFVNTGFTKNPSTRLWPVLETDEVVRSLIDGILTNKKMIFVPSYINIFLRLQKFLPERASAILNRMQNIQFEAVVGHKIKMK
The assay can be described thus: NADH detection assay (fluorescence based LTB3 assay) for HSD17B13 activity. The class given is biochemical. The following applies: substrate 25 μM LTB3, 3 mM NAD+, 125 nM HSD17B13 enzyme, 1 hour at 26.5° C. The gist of the method:
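E. coli-expressed His-tagged HSD17B13 (125 nM) with 25 μM LTB3 and 3 mM NAD+ in 1 M potassium phosphate pH 7.4, 1% DMSO, 1 h at 26.5 °C. NADH fluorescence (Ex 340/Em 445 nm) minus t=0 baseline and no-LTB3 controls, converted via NADH standards. IC50 from four-parameter fits over ten concentrations (30 μM-2.5 nM), duplicate runs.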

Assay [2] concerns the target T1, HSD17B13 enzyme. The assay can be described thus: Estrone detection assay (LC/MS, estradiol to estrone conversion) for HSD17B13 activity. The following applies: substrate 4 μM Estradiol, 6 mM NAD+, 30 nM HSD17B13 enzyme, 2 hours at 26.5° C. The assay is classed as biochemical. How it is done:
Example B: Estrone Detection Assay for Evaluation of HSD17ß13 Activity and Identification of Inhibitors
The liquid chromatography/mass spectrometry (LC/MS) estrone detection assay monitors the conversion of estradiol to estrone by HSD17B13. This assay was undertaken in a 96wp format (Eppendorf deep well Plate 96/500) in an 80 μl reaction volume containing: 4 μM of Estradiol (E2; Cayman; Ser. No. 10/006,315), 6 mM NAD+(Sigma; #N0623) and 30 nM HSD17B13 enzyme (in-house; E. coli expressed His-tagged, purified, soluble protein) in a reaction containing […] potassium phosphate buffer pH 7.4, with 0.5% vehicle (DMSO). Reactions were incubated for 2 hours at 26.5° C., and estradiol (E2) conversion to estrone (E1) was quantitated by LC-MS/MS based analyte detection for both E2 and E1 using LCMS grade reagents.
Reactions were terminated by the addition of two volumes of acetonitrile (MeCN; LCMS grade; CAS #75/05/8) containing deuterated (D4)-E1 used as internal standard (Clear Synth; #CS-T-54273; 500 ng/mL final concentration). Samples were applied to pre-prepared Bond Elut-C18 extraction cartridges (3 mL; Agilent; Ser. No. 12/102,028), washed and eluted in MeCN. Eluates were dried under nitrogen and re-suspended in 60% methanol (LCMS grade methanol; CAS #67/56/1) before submission for analysis. Aqueous linearity for E2 and E1 were included for quantification.
Analysis of samples was undertaken on a XBridge BEH C18 column (Waters; #186003033) using 0.1% Diethyl Amine in MeCN (mobile phase A; DEA CAS #109-89-7) and 0.1% Diethyl Amine in milli-Q water (mobile phase B) in a 3 min gradient allowing 25% B. Analytes were detected in negative mode using MRM analysis, with E2 having a RT of 1.85 min and E1 having a RT of 2 min. Activity of the enzyme, in the absence of NAD+, was used to evaluate specificity of conversion. Enzyme activity in the presence of test samples was expressed as a percentage of the uninhibited enzyme activity, and plotted versus inhibitor concentration. Non-linear regression was performed using a four-parameter logistic model and GraphPad Prism software (GraphPad Software, La Jolla, CA). All assessments were undertaken in duplicate evaluations and pooled during extraction process and subsequently injected as duplicates for LC-MS/MS analysis.

The IC50 is the point on the concentration scale where inhibition reaches its midpoint. Read a low IC50 as inhibition by little substance.

With `COc1cccc(-c2cccc(Oc3ccc(F)c(NS(C)(=O)=O)c3)n2)c1F` [Example 111, N-(2-fluoro-5-((6-(2-fluoro-3-methoxyphenyl)pyridin-2-yl)oxy)phenyl) methanesulfonamide], the IC50 against HSD17B13 enzyme [1] is over 30 µM.
Consider `COc1cccc(-c2cccc(Oc3ccc(=O)n(C(F)F)c3)n2)c1F` [Example 112, 1-(difluoromethyl)-5-((6-(2-fluoro-3-methoxyphenyl)pyridin-2-yl)oxy)pyridin-2(1H)-one], for which the IC50 against HSD17B13 enzyme [1] was over 30 µM.
On the same count and under the same terms, under `O=S(=O)(Nc1cccc(-c2cccc(Oc3ccc(F)c(O)c3)n2)c1)C1CC1` [Example 113, N-(3-(6-(4-fluoro-3-hydroxyphenoxy)pyridin-2-yl)phenyl) cyclopropanesulfonamide] stands 10 to 30 µM; under `O=S(=O)(Nc1cccc(-c2cccc(Oc3ccc(F)c(O)c3)n2)c1F)C1CC1` [Example 114, N-{2-fluoro-3-[6-(4-fluoro-3-hydroxyphenoxy)pyridin-2-yl]phenyl} cyclopropanesulfonamide], 5 to 10 µM.
For `Oc1c(F)ccc(Oc2ccnc(-c3ccc(N4CCOCC4)cc3)n2)c1F` [Example 115, 2,6-difluoro-3-((2-(4-morpholinophenyl)pyrimidin-4-yl)oxy)phenol], the IC50 at HSD17B13 enzyme [2] is at most 0.1 µM.
In turn, `O=S1(=O)CCN(c2ccc(-c3nccc(Oc4ccc(F)c(O)c4F)n3)cc2)CC1` [Example 116, 4-(4-(4-(2,4-difluoro-3-hydroxyphenoxy)pyrimidin-2-yl)phenyl) thiomorpholine 1,1-dioxide] had an IC50 against HSD17B13 enzyme [2] of at most 0.1 µM.
On to `Oc1c(Cl)ccc(Oc2ccnc(-c3ccc(N4CCOCC4)cc3)n2)c1F` [Example 117, 6-chloro-2-fluoro-3-((2-(4-morpholinophenyl)pyrimidin-4-yl)oxy)phenol], for which the IC50 against HSD17B13 enzyme [2] lay in the range of 0.1 to 0.5 µM.
The same measure, in the same setting: the result for `Oc1c(Cl)ccc(Oc2ccnc(-c3ccc(N4CCOCC4)cc3)n2)c1Cl` [Example 118, 2,6-dichloro-3-((2-(4-morpholinophenyl)pyrimidin-4-yl)oxy)pheno] reads 0.5 to 1 µM.
